The term Kd denotes the concentration at which binding is half-saturated.

These results are taken from publication PMC11203436, “Hell’s Gate Globin-I from Methylacidiphilum infernorum Displays a Unique Temperature-Independent pH Sensing Mechanism Utililized a Lipid-Induced Conformational Change” (International Journal of Molecular Sciences, 2024).

In assay [1] the target is T1, Hell's Gate globin-I (HGb-I) (Candidatus Methylacidiphilum infernorum, UniProt B3DUZ7).
T1 construct: gene hmp
T1 sequence (B3DUZ7 1-133): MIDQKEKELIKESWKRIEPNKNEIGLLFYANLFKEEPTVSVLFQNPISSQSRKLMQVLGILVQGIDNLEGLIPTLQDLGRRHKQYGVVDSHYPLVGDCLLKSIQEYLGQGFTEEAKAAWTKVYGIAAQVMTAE
The assay can be described thus: optical (absorbance) titration of ferric protein at pH […] °C; supported by EPR and stopped flow. In kind it is binding.

Assay [2] deals with T1, Hell's Gate globin-I (HGb-I). The assay can be described thus: stopped-flow CO binding kinetics; optical spectrum of ferrous-CO form.
Assay [3] has the same target. Nature of the assay: optical (absorbance) titration of ferric protein at pH […] °C. In kind it is binding.

In the case of `CCCCCCCC/C=C\CCCCCCCC(=O)O` [oleate], in assay [1], binding was characterised by a dissociation constant (Kd) of 0.73 µM.
For the compound `[C-]#[O+]` [carbon monoxide], the “stopped-flow CO binding kinetics; optical spectrum of ferrous-CO form” value in assay [2] is “In the absence of oleate, the CO binding to the hexacoordinate form is slow and reaches a plateau”.
In the case of `CCCCCCCCCCCCCCCC(=O)O` [palmitate], the Kd in assay [3] amounted to 9.88 µM.
